Test results taken from US20240300940A1, “Phenothiazinyl Compounds and Uses” (Prosetta Biosciences, Inc., priority 2023, published 2024).

Tests used:
[1] = system: E. coli ATCC25922; assay: MIC assay, serial dilution; details: for MIC: Escherichia coli, ATCC25922, read-out: Anti-bacterial Activity (E. coli MIC (uM)), E. coli, Table 5
[2] = system: VACV-LUC virus; assay: microbe, parasite or virus in culture; assay type: cell-based; details: Orthopoxvirus vaccinia, HeLa, 2 h
[3] = system: NL4-3 Rluc virus; assay: microbe, parasite or virus in culture; assay type: cell-based, HIV; details: MT-2 cells, MOI 0.02, 96 hours
[4] = system: Hennes-20 cells; assay: Hennes-20 oncology screen; assay type: cell-based; details: 72 h, alamar Blue
Method: To screen compounds for oncology activity Hennes-20 cells were plated at low (500 cells/well) versus high (15,000 cells/well) densities and treated with DMSO (vehicle) or dose-titration of compounds. The rationale for this screen is that an intrinsically toxic compound should kill cells regardless of density, including in Hennes-20 cells. However, a compound that selectively triggers the arrest of proliferation will inhibit cell growth when plated at a low density will appear cytotoxic due to inhibition of cell growth when plated at a low density but will appear non-toxic to cells plated at a high density where the cells are approaching confluence and the readout detected by a cell viability assay is already close to the maximum.
To conduct the Hennes-20 screen, two 96 well plates were seeded with Hennes 20 cells in parallel where one was plated at a density of 500 cells/well and the other was plated at a density of 15,000 cells/well. 90 uL of minimum essential media was added to each well and plates were placed in a 37 degrees Celsius incubator for 24 hours. The next day, 10 ul of media containing dilutions of compound in DMSO were added to each plate. Six wells on each plate received 10 ul of media containing only DMSO. Each well was gently mixed 5 times with a 100 ul pipette. Plates were incubated at 37 degrees Celsius for 72 hours and then 10 uL of alamar Blue was added to each well. Wells were mixed 5 times then incubated at 37 degrees Celsius for […]. Plates were then read at 530/590.
The rationale for the screen is as follows: Hennes-20 cells lack endogenous apoptosis. Cells plated at low density will proliferate and approach confluence in 72 hrs. A drug that arrests proliferation may have its proliferation blocking effect masked by the triggering of endogenous apoptosis. However, in the Hennes line, lacking endogenous apoptosis, such an arrest is manifest as a dose-dependent maintenance at low cell density. Since the high-density cells are plated close to confluence, the difference between Alamar Blue cell survival readings after 72 hrs reflects the ability of the drug to block proliferation in the low density-plated cells. In the high density-plated cells any diminution of Alamar Blue readout vs vehicle control is due to intrinsic toxicity, not proliferation arrest, since cells were already at confluence. Thus, a compound that appears toxic (low Alamar Blue readings after 72 hrs) on the low-density plate, but which appears non-toxic (high Alamar Blue readings after 72 hrs) on the high-density plate, must be arresting proliferation, since intrinsic compound toxicity should be observed at both low and high cell densities, not selectively on the low-density plate.

[5] = system: RABV ERA strain; assay: organism not typed; assay type: cell-based
[6] = Human immunodeficiency virus 1, NL43, MT2, 96 h

Compound | MIC [1] [µM] | EC50 [2] [nM] | EC50 [3, 6] [nM] | EC50 [4] [nM] | EC50 [5] [nM] | Anti-bacterial Activity (E. coli MIC (uM)) ([1]; E. coli, Table 5) [µM] | EC50 [3] [nM]
CCc1cc(N2CCCC2)cc2[s+]c3cc(N4CCCC4)cc(C)c3nc12 [Compound 45] | 0.8 | < 1670 | 3.1 | < 2500 | – | – | –
CCc1cc(N2CCCC2)cc2[s+]c3cc(N(C)C)cc(C(C)C)c3nc12 [Compound 73] | 100 | 1670 | 1.8 | 500 | < 500 | – | –
CCc1cc(N2CCCC2)cc2[s+]c3cc(N4CCCC4)cc(C(C)C)c3nc12 [Compound 46] | – | – | 3 | < 500 | < 5 | 3.1 | –
c1cc2nc3ccc(N4CCCC4)cc3[s+]c2cc1N1CCCC1 [Compound 68] | 6.3 | < 560 | 42 | < 500 | – | – | –
CCc1cc(N(C)C)cc2[s+]c3cc(N4CCCC4)cc(CC)c3nc12 [Compound 36] | 1.6 | < 1670 | 7.6 | < 500 | – | – | –
CCc1cc(N2CCCCCC2)cc2[s+]c3cc(N(C)C4CCNCC4)cc(CC)c3nc12 [Compound 77] | 3.1 | 1670 | – | < 2500 | – | – | –
CCc1cc(N(C)C)cc2[s+]c3cc(N4CCCNCC4)cc(CC)c3nc12 [Compound 83] | 100 | 1670 | – | < 12500 | < 500 | – | 270
Cc1cc(C(C)C)cc2[s+]c3cc(N(C)C)cc(C)c3nc12 [Compound 59] | – | 560 | – | < 500 | – | – | –
